Source: PubChem BioAssay (NCI)
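Exposure lasted 48 hours, with cells grown in 96-well plates and compounds tested at five concentrations. GI50: concentration for 50% inhibition of growth. TGI marks complete inhibition of growth.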

Key:
Assay in all cases: NCI tumour cell line growth inhibition, 48 h
UACC-257 melanoma = test system: UACC-257 melanoma
NCI-H460 lung = test system: NCI-H460 lung
HL-60(TB) leukemia = test system: HL-60(TB) leukemia
OVCAR-4 ovarian = test system: OVCAR-4 ovarian
DU-145 prostate = test system: DU-145 prostate
SN12C renal = test system: SN12C renal
NCI-H23 lung = test system: NCI-H23 lung
IGROV1 ovarian = test system: IGROV1 ovarian
MDA-N = test system: MDA-N
NCI-H226 lung = test system: NCI-H226 lung
T-47D breast = test system: T-47D breast

Question: Fc1ccc(C2CC(c3cccc(Nc4ccncc4)c3)=NN2c2ccc(Cl)cc2)cc1 (stereo not given) was tested. Which GI50 (UACC-257 melanoma) did it give?
Answer: The GI50 was 2 µM.

Question: What about the TGI (UACC-257 melanoma) of the same compound?
Answer: The TGI was 4.15 µM.

Question: And the GI50 (NCI-H460 lung)?
Answer: Its GI50 is 1.79 µM.

Question: And the TGI (NCI-H460 lung)?
Answer: The TGI was 3.35 µM.

Question: What about the GI50 (HL-60(TB) leukemia) of the same compound?
Answer: Its GI50 is 1.95 µM.

Question: What about the TGI (HL-60(TB) leukemia) of the same compound?
Answer: Its TGI is 4.22 µM.

Question: And the GI50 (OVCAR-4 ovarian)?
Answer: The GI50 was 1.64 µM.

Question: What about the TGI (OVCAR-4 ovarian) of the same compound?
Answer: Its TGI is 3.05 µM.

Question: What about the GI50 (DU-145 prostate) of the same compound?
Answer: Its GI50 is 1.78 µM.

Question: And the TGI (DU-145 prostate)?
Answer: The TGI was 3.21 µM.

Question: And the GI50 (SN12C renal)?
Answer: Its GI50 is 1.67 µM.

Question: And the TGI (SN12C renal)?
Answer: Its TGI is 3.16 µM.

Question: What about the GI50 (NCI-H23 lung) of the same compound?
Answer: The GI50 was 1.84 µM.

Question: And the TGI (NCI-H23 lung)?
Answer: Its TGI is 3.62 µM.

Question: And the GI50 (IGROV1 ovarian)?
Answer: The GI50 was 1.78 µM.

Question: And the TGI (IGROV1 ovarian)?
Answer: The TGI was 3.37 µM.

Question: For Cc1cc2c(cc1C)OC(=O)CC2, which TGI (UACC-257 melanoma) is on record?
Answer: Its TGI is over 100 µM.

Question: What about the TGI (NCI-H460 lung) of the same compound?
Answer: The TGI was over 100 µM.

Question: And the TGI (MDA-N)?
Answer: The TGI was over 100 µM.

Question: What about the TGI (NCI-H226 lung) of the same compound?
Answer: Its TGI is over 100 µM.

Question: And the TGI (HL-60(TB) leukemia)?
Answer: Its TGI is over 100 µM.

Question: What about the TGI (OVCAR-4 ovarian) of the same compound?
Answer: The TGI was over 100 µM.

Question: And the TGI (T-47D breast)?
Answer: Its TGI is over 100 µM.

Question: And the TGI (DU-145 prostate)?
Answer: Its TGI is over 100 µM.

Question: And the TGI (SN12C renal)?
Answer: The TGI was over 100 µM.

Question: And the TGI (NCI-H23 lung)?
Answer: Its TGI is over 100 µM.

Question: What about the TGI (IGROV1 ovarian) of the same compound?
Answer: Its TGI is over 100 µM.

Question: Which results are given for OCCOCCN1CCN(CCCN2c3ccccc3Sc3ccc(C(F)(F)F)cc32)CC1?
Answer: TGI (UACC-257 melanoma): 18.3 µM; TGI (NCI-H460 lung): 22.7 µM; TGI (MDA-N): 26.1 µM; TGI (NCI-H226 lung): 37.2 µM; TGI (OVCAR-4 ovarian): 30.2 µM; TGI (T-47D breast): 2.48 µM; TGI (DU-145 prostate): 27.6 µM; TGI (SN12C renal): 26.7 µM; TGI (NCI-H23 lung): 31 µM; TGI (IGROV1 ovarian): 22.2 µM

Question: Which TGI (UACC-257 melanoma) does the source give for CC(=O)OCC1=C(C(=O)O)N2C(=O)C(NC(=O)CSc3ccncc3)C2SC1 (stereo not given) here?
Answer: Its TGI is over 100 µM.

Question: And the TGI (NCI-H460 lung)?
Answer: The TGI was over 100 µM.

Question: What about the TGI (MDA-N) of the same compound?
Answer: Its TGI is over 100 µM.

Question: What about the TGI (NCI-H226 lung) of the same compound?
Answer: Its TGI is over 100 µM.

Question: And the TGI (HL-60(TB) leukemia)?
Answer: Its TGI is over 100 µM.

Question: What about the TGI (T-47D breast) of the same compound?
Answer: The TGI was over 100 µM.

Question: And the TGI (DU-145 prostate)?
Answer: The TGI was over 100 µM.

Question: What about the TGI (SN12C renal) of the same compound?
Answer: Its TGI is over 100 µM.

Question: What about the TGI (NCI-H23 lung) of the same compound?
Answer: Its TGI is over 100 µM.

Question: What about the TGI (IGROV1 ovarian) of the same compound?
Answer: The TGI was over 100 µM.

Question: How did the TGI (UACC-257 melanoma) turn out when CCOC(=O)NC(Nc1ncccn1)(C(=O)OCC)C(F)(F)F (stereo not given) was run?
Answer: The TGI was over 100 µM.

Question: What about the TGI (NCI-H460 lung) of the same compound?
Answer: The TGI was over 100 µM.

Question: What about the TGI (MDA-N) of the same compound?
Answer: The TGI was over 100 µM.

Question: And the TGI (HL-60(TB) leukemia)?
Answer: Its TGI is over 100 µM.

Question: What about the TGI (OVCAR-4 ovarian) of the same compound?
Answer: Its TGI is over 100 µM.

Question: What about the TGI (T-47D breast) of the same compound?
Answer: The TGI was over 100 µM.

Question: What about the TGI (DU-145 prostate) of the same compound?
Answer: Its TGI is over 100 µM.

Question: And the TGI (SN12C renal)?
Answer: The TGI was over 100 µM.

Question: What about the TGI (NCI-H23 lung) of the same compound?
Answer: The TGI was over 100 µM.

Question: And the TGI (IGROV1 ovarian)?
Answer: The TGI was over 100 µM.

Question: Which results are given for C[C@]12CC[C@@H]3c4ccc(O)cc4CC[C@H]3[C@@H]1CC[C@@H]2OP(=O)(O)O?
Answer: TGI (UACC-257 melanoma): > 100 µM; TGI (NCI-H460 lung): > 100 µM; TGI (MDA-N): > 100 µM; TGI (NCI-H226 lung): > 100 µM; TGI (HL-60(TB) leukemia): > 100 µM; TGI (OVCAR-4 ovarian): > 100 µM; TGI (T-47D breast): > 100 µM; TGI (DU-145 prostate): > 100 µM; TGI (SN12C renal): > 100 µM; TGI (NCI-H23 lung): > 100 µM; TGI (IGROV1 ovarian): > 100 µM

Question: For O=C1Nc2ccccc2C1=Nc1cccc2ncccc12, which TGI (UACC-257 melanoma) is on record?
Answer: The TGI was over 100 µM.

Question: What about the TGI (NCI-H460 lung) of the same compound?
Answer: The TGI was over 100 µM.

Question: What about the TGI (MDA-N) of the same compound?
Answer: Its TGI is over 100 µM.

Question: And the TGI (NCI-H226 lung)?
Answer: Its TGI is over 100 µM.

Question: What about the TGI (OVCAR-4 ovarian) of the same compound?
Answer: Its TGI is over 100 µM.

Question: And the TGI (T-47D breast)?
Answer: Its TGI is over 100 µM.

Question: What about the TGI (DU-145 prostate) of the same compound?
Answer: The TGI was over 100 µM.

Question: What about the TGI (SN12C renal) of the same compound?
Answer: The TGI was over 100 µM.

Question: And the TGI (NCI-H23 lung)?
Answer: Its TGI is over 100 µM.

Question: And the TGI (IGROV1 ovarian)?
Answer: Its TGI is over 100 µM.

Question: How did the TGI (UACC-257 melanoma) turn out when CC(=O)c1ccc2c(c1)c1c(C)c3c[n+](C)ccc3c(C)c1n2C was run?
Answer: Its TGI is 36.2 µM.

Question: And the TGI (NCI-H460 lung)?
Answer: The TGI was 15.1 µM.

Question: And the TGI (NCI-H226 lung)?
Answer: The TGI was 11.8 µM.

Question: What about the TGI (HL-60(TB) leukemia) of the same compound?
Answer: The TGI was over 68.6 µM.

Question: What about the TGI (OVCAR-4 ovarian) of the same compound?
Answer: The TGI was 54.4 µM.

Question: What about the TGI (SN12C renal) of the same compound?
Answer: The TGI was 4.9 µM.

Question: What about the TGI (IGROV1 ovarian) of the same compound?
Answer: Its TGI is over 100 µM.
